Source: US8519149B2, “Tricyclic compounds as mPGES-1 inhibitors” (Glenmark Pharmaceuticals S.A., priority 2010, dated 2013)

Target: T1, Recombinant human mPGES-1 (Homo sapiens, UniProt O14684)
T1 sequence (O14684 1-152): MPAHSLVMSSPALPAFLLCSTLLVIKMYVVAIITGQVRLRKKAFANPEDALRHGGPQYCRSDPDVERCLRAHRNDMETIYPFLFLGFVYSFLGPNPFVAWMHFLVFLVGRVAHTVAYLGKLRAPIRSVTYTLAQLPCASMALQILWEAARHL
Assay: In-vitro mPGES-1 enzyme inhibition assay (PGE2 formation from PGH2, HTRF detection)
Type: biochemical
Details: for inhibition at 1 µM: 1 μM test compound, read-out: Percentage inhibition at 1 μM; for inhibition at 1 µM / inhibition at 10 µM: recombinant human mPGES-1 microsomal fraction; for inhibition at 10 µM: 10 μM test compound, read-out: Percentage inhibition at 10 μM; for IC50: class symbols, selected examples
Outline: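 IC50 values were derived by nonlinear regression of percent inhibition relative to enzyme reactions run without inhibitor. PGE2 formed from PGH2 with GSH was quantified by antibody-based HTRF after stannous chloride quench. Enzyme source was human mPGES-1 microsomes at 40-60 μg/mL protein; DMSO 0.5% (v/v).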

inhibition at 1 µM	inhibition at 10 µM	IC50	Structure (SMILES)
53.9%	91.1%		Cc1nc2c(o1)c(C(=O)NC1CCC(F)(F)CC1)cc1nc(Nc3c(Cl)cccc3Cl)[nH]c12 [Example-189, 7-[(2,6-Dichlorophenyl)amino]-N-(4,4-difluorocyclohexyl)-2-methyl-8H-imidazo[4,5-e][1,3]benzoxazole-4-carboxamide]
87.7%	89.3%	< 50 nM	CC1(C)Cc2c(c(C(=O)NCCc3ccc(Cl)cc3)cc3nc(Nc4c(Cl)cccc4Cl)[nH]c23)O1 [Example-83, N-[2-(4-Chlorophenyl)ethyl]-2-[(2,6-dichlorophenyl)amino]-7,7-dimethyl-7,8-dihydro-1H-furo[3,2-e]benzimidazole-5-carboxamide]
95.3%	100%	< 50 nM	Cc1ccnc(Cl)c1Nc1nc2cc(C(=O)Nc3cccc(C(F)(F)F)c3)c3c(c2[nH]1)CC(C)(C)O3 [Example-137, 2-((2-Chloro-4-methylpyridin-3-yl)amino)-7,7-dimethyl-N-(3-(trifluoromethyl)phenyl)-7,8-dihydro-1H-benzofuro[4,5-d]imidazole-5-carboxamide]
97.8%	98.5%		Cn1c(Nc2c(Cl)cncc2Cl)nc2cc(C(=O)Nc3ccc(C(F)(F)F)cn3)c3c(c21)CC(C)(C)O3 [Example-219, 2-((3,5-Dichloropyridin-4-yl)amino)-1,7,7-trimethyl-N-(5-(trifluoromethyl)pyridin-2-yl)-7,8-dihydro-1H-benzofuro[4,5-d]imidazole-5-carboxamide]
92.6%	90.1%	< 50 nM	CC1(C)Cc2c(c(C(=O)Nc3ccc(Br)cc3)cc3nc(Nc4c(Cl)cncc4Cl)[nH]c23)O1 [Example-8, N-(4-Bromophenyl)-2-[(3,5-dichloropyridin-4-yl)amino]-7,7-dimethyl-7,8-dihydro-1H-furo[3,2-e]benzimidazole-5-carboxamide]
98.9%	99.7%	< 50 nM	Cn1c(Nc2c(F)cccc2Cl)nc2cc(C(=O)Nc3ccc(C(F)(F)F)cn3)c3c(c21)CC(C)(C)O3 [Example-157, 2-((2-Chloro-6-fluorophenyl)amino)-1,7,7-trimethyl-N-(5-(trifluoromethyl)pyridin-2-yl)-7,8-dihydro-1H-benzofuro[4,5-d]imidazole-5-carboxamide]
95.1%	98.8%	< 50 nM	CC1(C)Cc2c(c(C(=O)Nc3ccc(F)c(F)c3F)cc3nc(Nc4c(Cl)cncc4Cl)[nH]c23)O1 [Example-212, 2-((3,5-Dichloropyridin-4-yl)amino)-7,7-dimethyl-N-(2,3,4-trifluorophenyl)-7,8-dihydro-1H-benzofuro[4,5-d]imidazole-5-carboxamide]
100%	100%	< 50 nM	CC1(C)Cc2c(c(C(=O)Nc3ccc(OC(F)F)nc3)cc3nc(Nc4c(F)cccc4Cl)[nH]c23)O1 [Example-115, 2-[(2-Chloro-6-fluorophenyl)amino]-N-[6-(difluoromethoxy)pyridin-3-yl]-7,7-dimethyl-7,8-dihydro-1H-furo[3,2-e]benzimidazole-5-carboxamide]
91.8%	94.2%	> 100 nM	Cc1nc(NC(=O)c2cc3nc(Nc4c(F)cccc4Cl)[nH]c3c3c2OC(C)(C)C3)sc1C [Example-55, 2-[(2-Chloro-6-fluorophenyl)amino]-N-(4,5-dimethyl-1,3-thiazol-2-yl)-7,7-dimethyl-7,8-dihydro-1H-furo[3,2-e]benzimidazole-5-carboxamide]
37.3%	46%		CC1(C)Cc2c(c(C(=O)Nc3cccc(C(F)(F)F)c3)cc3nc(NCc4ccccc4Cl)[nH]c23)O1 [Example-144, 2-((2-Chlorobenzyl)amino)-7,7-dimethyl-N-(3-(trifluoromethyl)phenyl)-7,8-dihydro-1H-benzofuro[4,5-d]imidazole-5-carboxamide]
93.5%	94.5%	< 50 nM	Cc1cccc(Cl)c1Nc1nc2cc(C(=O)Nc3cccc(C(F)(F)F)c3F)c3c(c2[nH]1)CC(C)(C)O3 [Example-164, 2-((2-Chloro-6-methylphenyl)amino)-N-(2-fluoro-3-(trifluoromethyl)phenyl)-7,7-dimethyl-7,8-dihydro-1H-benzofuro[4,5-d]imidazole-5-carboxamide]
12%	13.9%		CC1(C)Cc2c(c(C(=O)Nc3ccccc3C(F)(F)F)cc3nc(Nc4ccccc4C(C)(C)C)[nH]c23)O1 [Example-98, 2-[(2-tert-Butylphenyl)amino]-7,7-dimethyl-N-[2-(trifluoromethyl)phenyl]-7,8-dihydro-1H-furo[3,2-e]benzimidazole-5-carboxamide]
87.9%	99.8%	> 100 nM	Cn1c(Nc2c(F)cccc2Cl)nc2cc(C(=O)Nc3ccc(C(F)(F)F)c[n+]3[O-])c3c(c21)CC(C)(C)O3 [Example-155, 2-(2-((2-Chloro-6-fluorophenyl)amino)-1,7,7-trimethyl-7,8-dihydro-1H-benzofuro[4,5-d]imidazole-5-carboxamido)-5-(trifluoromethyl)pyridine 1-oxide]
99.6%	99.5%	< 50 nM	CC1(C)Cc2c(c(C(=O)Nc3ccc(F)cc3F)cc3nc(Nc4c(Cl)cncc4Cl)[nH]c23)O1 [Example-197, 2-((3,5-Dichloropyridin-4-yl)amino)-N-(2,4-difluorophenyl)-7,7-dimethyl-7,8-dihydro-1H-benzofuro[4,5-d]imidazole-5-carboxamide]
97.7%	97.8%	< 50 nM	CC(NC(=O)c1cc2nc(Nc3c(Cl)cncc3Cl)[nH]c2c2c1OC(C)(C)C2)C1CCCCC1 (stereo not drawn) [Example-5, N-(1-Cyclohexylethyl)-2-[(3,5-dichloropyridin-4-yl)amino]-7,7-dimethyl-7,8-dihydro-1H-furo[3,2-e]benzimidazole-5-carboxamide]
88.7%	94.6%	< 50 nM	Cc1cnc(NC(=O)c2cc3nc(Nc4c(Cl)cccc4Cl)[nH]c3c3c2OC(C)(C)C3)s1 [Example-40, 2-[(2,6-Dichlorophenyl)amino]-7,7-dimethyl-N-(5-methyl-1,3-thiazol-2-yl)-7,8-dihydro-1H-furo[3,2-e]benzimidazole-5-carboxamide]
99.4%	98.7%	< 50 nM	Cc1cc(C(F)(F)F)ccc1NC(=O)c1cc2nc(Nc3c(F)cccc3Cl)[nH]c2c2c1OC(C)(C)C2 [Example-113, 2-[(2-Chloro-6-fluorophenyl)amino]-7,7-dimethyl-N-[2-methyl-4-(trifluoromethyl)phenyl]-7,8-dihydro-1H-furo[3,2-e]benzimidazole-5-carboxamide]
89.3%	99.1%		Cc1cc2c(o1)c(C(=O)NCc1ccc(F)cc1)cc1nc(Nc3c(Cl)cccc3Cl)[nH]c12 [Example-35, 2-[(2,6-Dichlorophenyl)amino]-N-(4-fluorobenzyl)-7-methyl-1H-furo[3,2-e]benzimidazole-5-carboxamide]
97%	99.6%	< 50 nM	CC1(C)Cc2c(c(C(=O)NCc3ccccc3C(F)(F)F)cc3nc(Nc4c(Cl)cncc4Cl)[nH]c23)O1 [Example-2, 2-[(3,5-Dichloropyridin-4-yl)amino]-7,7-dimethyl-N-[2-(trifluoromethyl)benzyl]-7,8-dihydro-1H-furo[3,2-e]benzimidazole-5-carboxamide]
73.5%	94.9%		Cc1cc2c(o1)c(C(=O)NC1CCCCC1)cc1nc(Nc3ccccc3Cl)[nH]c12 [Example-16, 2-[(2-Chlorophenyl)amino]-N-cyclohexyl-7-methyl-1H-furo[3,2-e]benzimidazole-5-carboxamide]
97.9%	97.5%	< 50 nM	Cc1ccc(NC(=O)c2cc3nc(Nc4c(Cl)cccc4Cl)[nH]c3c3c2OC(C)(C)C3)c(F)c1 [Example-142, 2-((2,6-Dichlorophenyl)amino)-N-(2-fluoro-4-methylphenyl)-7,7-dimethyl-7,8-dihydro-1H-benzofuro[4,5-d]imidazole-5-carboxamide]
96.8%	96.2%	< 50 nM	CC1(C)Cc2c(c(C(=O)Nc3ccc(C(F)(F)F)cc3F)cc3nc(Nc4c(F)cccc4Cl)[nH]c23)O1 [Example-112, 2-[(2-Chloro-6-fluorophenyl)amino]-N-[2-fluoro-4-(trifluoromethyl)phenyl]-7,7-dimethyl-7,8-dihydro-1H-furo[3,2-e]benzimidazole-5-carboxamide]
99.8%	100%	< 50 nM	Cc1ccc(NC(=O)c2cc3nc(Nc4c(F)cccc4Cl)n(C)c3c3c2OC(C)(C)C3)c(F)c1 [Example-154, 2-((2-Chloro-6-fluorophenyl)amino)-N-(2-fluoro-4-methylphenyl)-1,7,7-trimethyl-7,8-dihydro-1H-benzofuro[4,5-d]imidazole-5-carboxamide]
87.3%	98.9%	> 100 nM	CC1(C)Cc2c(c(C(=O)NC3CCCCC3)cc3nc(Nc4c(Cl)cncc4Cl)sc23)O1 [Example-28, N-Cyclohexyl-2-[(3,5-dichloropyridin-4-yl)amino]-7,7-dimethyl-7,8-dihydrofuro[2,3-g][1,3]benzothiazole-5-carboxamide]
